The text below walks through data of patent US7699995B2, “Water treatment method” (priority 2006, dated 2010).

For one data set, the system named is Rhodotorula rubra. Put plainly: MIC, fungi, MEB pH 4.7. The class given is cell-based. Particulars: 168 h. The method, then:
(§1) Minimum inhibitory concentration (MIC) studies were conducted to determine the lowest level of biocide required to inhibit growth of bacteria and fungi. Tests were conducted in 96-well microtiter plates. Biocides were added to growth media in the plates and serially diluted to obtain a range of concentrations. Bacterial tests were conducted in trypticase soy broth (TSB; pH 7) using an overnight inoculum added at 10^6 colony forming units per ml. […] Fungal tests were conducted in malt extract broth (MEB; pH 4.7) using an 5-7 day inoculum added at 10^4 colony forming units per ml.

A further data set deals with Candida albicans. Put plainly: MIC, fungi, MEB pH 4.7. In kind it is cell-based. Particulars: 168 h. The method, then:
as §1

For the next data set, the system named is Fusarium sp. Kind of data set: MIC, fungi, MEB pH 4.7. In kind it is cell-based. The settings on record: 168 h, MEB pH 4.7, 25° C., 7 days. The procedure: as §1
The subject of the next data set is Field Isolate (fungi). Put plainly: MIC, fungi, MEB pH 4.7. In kind it is cell-based. The settings on record: 168 h, MEB pH 4.7, 25° C., 7 days. The procedure: as §1
The test system of a further data set is Geotrichum candidum. Kind of data set: MIC, fungi, MEB pH 4.7. The class given is cell-based. The settings on record: 168 h. The method, then: as §1
The test system of a further data set is Fusarium solani. Kind of data set: MIC, fungi, MEB pH 4.7. In kind it is cell-based. The settings on record: 168 h. The procedure:
as §1

A further data set deals with Trichosporon sp. Kind of data set: MIC, fungi, MEB pH 4.7. Particulars: 168 h. In kind it is cell-based. The procedure:
as §1

The next data set concerns Acremonium strictum. Put plainly: MIC, fungi, MEB pH 4.7. The class given is cell-based. Particulars: Sarocladium strictum, 168 h. The procedure: as §1
A short description of data set [1]: Stability in high pH metalworking fluid use dilutions (HPLC). The class given is physicochemical. Particulars: for % MIT Remaining: 25° C. The procedure: Stability studies were conducted in three high pH metalworking fluid use dilutions to compare the persistence of MIT biocide versus CMIT biocide, tested alone and in combination with MCC). Aliquots of the use-diluted fluids were dosed with 17.5 ppm active CMIT/MIT and CMIT/MIT/MCC and stored at 25° C. Biocide concentrations were determined at time zero and weekly using high performance liquid chromatography (HPLC) analysis.

For a further data set, the system named is Fungi. Put plainly: MIC, average over fungi. The class given is cell-based. The procedure: as §1
In another data set the test system is bacteria and fungi. Kind of data set: MIC pH 9.0 versus pH 7.1, all nine organisms. In kind it is cell-based. Particulars: over the nine organisms tested. The method, then: Minimum inhibitory concentration (MIC) studies were conducted to determine the lowest level of biocide required to inhibit growth of bacteria and fungi. Tests were conducted in 96-well microtiter plates. Biocides were added to growth media in the plates and serially diluted to obtain a range of concentrations. Tests were conducted in one-half strength trypticase soy broth (TSB; adjusted to pH 7.1 or pH 9.0). Bacteria and fungi were added to samples at 10^6 colony forming units per ml and incubated at 30° C. for three days. MIC values were determined visually on a growth no-growth basis.

≈ marks a conversion by molar mass, not a printed value. Where only a bound is given, the exact number is not on record here.

The MIC is the least concentration at which growth counts as inhibited. Regarding `Cn1sccc1=O` [MI, 2-methyl-4-isothiazolin-3-one], the MIC stood at 125 mg/L (≈ 1090 µM) in the data set with Rhodotorula rubra; 100 mg/L (≈ 868 µM) in the data set with Candida albicans; 25 mg/L (≈ 217 µM) against Fusarium sp.; 8 mg/L (≈ 69.5 µM) against Field Isolate (fungi) (first listed); 21 mg/L (≈ 182 µM) in the data set with Field Isolate (fungi) (second listed); 6 mg/L (≈ 52.1 µM) in the data set on Field Isolate (fungi) (third listed). For the same compound, the minimum inhibitory concentration (MIC) was 250 mg/L (≈ 2170 µM) against Geotrichum candidum; 13 mg/L (≈ 113 µM) in the data set on Fusarium solani; 63 mg/L (≈ 547 µM) in the data set with Trichosporon sp.; 16 mg/L (≈ 139 µM) in the data set on Acremonium strictum; 63 mg/L (≈ 547 µM) in the data set with Fungi (read-out: MIC, Average). For the same compound, the “% MIT Remaining” value in data set [1] (Soluble Fluid 1 (pH 9.2), 2 wk) stood at 95%; in data set [1] (Soluble Fluid 1 (pH 9.2), 4 wk), 100%; in [1] (Soluble Fluid 3 (pH 9.3), 2 wk), 95%; in data set [1] (Soluble Fluid 3 (pH 9.3), 4 wk), 100%; in [1] (Synthetic Fluid 2 (pH 9.4), 1 wk) it was 92%; in data set [1] (Synthetic Fluid 2 (pH 9.4), 3 wk), 94%. For the same compound, the biocide active retained entry in data set [1] (after 3-4 weeks in all three high pH use-diluted fluids) is listed as “greater than 90%”. Also, the “MI: CMI + MI MIC Ratio” value in the data set with Fungi (fungi, ratio of average MICs) came out at 46.8. Further, in the data set on bacteria and fungi, the “change of MIC at pH 9.0 versus pH 7.1” value is recorded as ≤ 2 ×.
